The source of these data is ChEMBL document CHEMBL4311942, “Design of Trp-Rich Dodecapeptides with Broad-Spectrum Antimicrobial Potency and Membrane-Disruptive Mechanism” (J Med Chem, 2019).

The nature of series [1]: Solubility of the compound. In kind it is physicochemical.
For series [2], the system named is Staphylococcus aureus. The series can be described thus: Antibacterial activity against Staphylococcus aureus ATCC 29213 incubated for 18 to 24 hrs by broth microdilution method. In kind it is functional. A general note: Broth dilution looks for growth in wells or tubes with falling amounts of substance.
A further series concerns Salmonella typhimurium. The series can be described thus: Antibacterial activity against Salmonella enterica serovar typhimurium C77-31 incubated for 18 to 24 hrs by broth microdilution method. The format is functional, Salmonella enterica subsp. enterica serovar Typhimurium.
For the next series, the system named is Erythrocyte. The series can be described thus: Haemolytic activity in human erythrocytes assessed as lowest concentration causing 5% hemolysis after 1 hr. In kind it is ADME, cell-based.
Series [3] deals with Staphylococcus aureus. The series can be described thus: Antibacterial activity against Staphylococcus aureus ATCC 25923 incubated for 18 to 24 hrs by broth microdilution method. In kind it is functional.
Series [4] is described as follows: Therapeutic index, ratio of MHC for human RBC to geometric mean of peptide MIC for Escherichia coli ATCC 25922. The format is toxicity. The conditions noted are these: pooled result: one value given for 6 cell lines, strains, targets or settings, read-out: TI.
The test system of series [5] is Escherichia coli. The series can be described thus: Antibacterial activity against Escherichia coli ATCC 25922 incubated for 18 to 24 hrs by broth microdilution method. The format is functional.
Series [6] can be described thus: Cytotoxicity against mouse RAW264.7 cells assessed as cell survival at <= 32 uM after 24 hrs by MTT assay relative to control. The conditions noted are these: RAW264.7 cells, up to 32 µM, read-out: Activity. The format is cell-based.
Series [7] concerns Escherichia coli. The series can be described thus: Antibacterial activity against Escherichia coli UB1005 incubated for 18 to 24 hrs by broth microdilution method. In kind it is functional.
For series [8], the system named is Staphylococcus epidermidis. The series can be described thus: Antibacterial activity against Staphylococcus epidermidis ATCC 12228 incubated for 18 to 24 hrs by broth microdilution method. The format is functional.
The next series concerns Lipopolysaccharide (LPS). The series can be described thus: Displacement of BODIPY-TR-cadaverine from Escherichia coli O111:B4 LPS by spectrofluorophotometric method.
The subject of a further series is Pseudomonas aeruginosa. The series can be described thus: Antibacterial activity against Pseudomonas aeruginosa PAO1 at sub-MIC treated over 35 serial passages by resistant development assay. In kind it is functional, organism-based.
Series [9] concerns Escherichia coli. The series can be described thus: Induction of cytoplasmic membrane depolarization in Escherichia coli UB1005 at 2 uM by DiSC3-5 dye based fluorescence method. The format is organism-based.
Series [10] deals with Acinetobacter baumannii. The series can be described thus: Antibacterial activity against Acinetobacter baumannii AB1901 clinical isolate incubated for 18 to 24 hrs by broth microdilution method. In kind it is functional.
The subject of series [11] is Escherichia coli. The series can be described thus: Inhibition of swimming motility of Escherichia coli ATCC 25922 at 1 to 4 uM after 16 hrs. The format is functional, organism-based.
Series [12] concerns Acinetobacter baumannii. The series can be described thus: Antibacterial activity against Acinetobacter baumannii AB1902 clinical isolate incubated for 18 to 24 hrs by broth microdilution method. In kind it is functional.
Series [13] relates to Escherichia coli. The series can be described thus: Resistance index, ratio of MIC for antibacterial activity against Escherichia coli ATCC 25922 treated over 35 serial passage by sequential passaging method to MIC for antibacterial activity against Escherichia coli ATCC 25922 incubated for 18 to 24 hrs by broth microdilution method. In kind it is functional.
The test system of series [14] is Escherichia coli. The series can be described thus: Induction of outer membrane permeabilization in Escherichia coli UB1005 assessed as increase in NPN uptake at 0.5 to 4 uM by spectrofluorophotometric assay. The format is organism-based.

What is called MIC is the least concentration at which growth counts as inhibited. A higher MIC goes with weaker potency.

Each structure is given as a SMILES string. In brackets after ≈: the same amount, converted by molar mass. Activity calls are given as the source filed them. The rule behind the calls is not given here. Where a SMILES comes first, the peptide text is derived from it.

In the case of `CC(C)C[C@H](NC(=O)[C@H](CCCNC(=N)N)NC(=O)[C@H](Cc1c[nH]c2ccccc12)NC(=O)[C@H](CCCNC(=N)N)NC(=O)[C@@H](NC(=O)[C@H](Cc1c[nH]c2ccccc12)NC(=O)[C@H](Cc1c[nH]c2ccccc12)NC(=O)[C@H](CCCNC(=N)N)NC(=O)[C@H](CC(C)C)NC(=O)[C@H](Cc1c[nH]c2ccccc12)NC(=O)[C@@H](N)CCCNC(=N)N)[C@@H](C)O)C(=O)N[C@@H](CCCCN)C(N)=O` (H-RWLRWWTRWRLK-NH2), in series [1], the solubility result is recorded as “Insoluble”. Also, the MIC against Staphylococcus aureus [2] was 4 µM (≈ 7.37 µg/mL); in the series with Salmonella typhimurium, 4 µM (≈ 7.37 µg/mL); against Staphylococcus aureus [3], 2 µM (≈ 3.68 µg/mL); with Escherichia coli [5], 4 µM (≈ 7.37 µg/mL); with Escherichia coli [7] it was 2 µM (≈ 3.68 µg/mL); in series [8], 4 µM (≈ 7.37 µg/mL). Also, the MHC with Erythrocyte was found to be 128 µM. Moreover, in series [4], the selectivity ratio was found to be 40.4. Moreover, the viability at 24 h in [6] was at least 70%.
For the compound `CC[C@H](C)[C@H](NC(=O)CN)C(=O)NCC(=O)N[C@@H](C)C(=O)N[C@H](C(=O)N[C@@H](CC(C)C)C(=O)N[C@@H](CCCCN)C(=O)N[C@H](C(=O)N[C@@H](CC(C)C)C(=O)N[C@H](C(=O)N[C@H](C(=O)NCC(=O)N[C@@H](CC(C)C)C(=O)N1CCC[C@H]1C(=O)N[C@@H](C)C(=O)N[C@@H](CC(C)C)C(=O)N[C@H](C(=O)N[C@@H](CO)C(=O)N[C@@H](Cc1c[nH]c2ccccc12)C(=O)N[C@H](C(=O)N[C@@H](CCCCN)C(=O)N[C@@H](CCCNC(=N)N)C(=O)N[C@@H](CCCCN)C(=O)N[C@@H](CCCNC(=N)N)C(=O)N[C@@H](CCC(N)=O)C(=O)N[C@@H](CCC(N)=O)C(N)=O)[C@@H](C)CC)[C@@H](C)CC)[C@@H](C)O)[C@@H](C)O)C(C)C)C(C)C` [MELITTIN], in the series with Lipopolysaccharide (LPS), the Activity entry is “Dose-dependent effect”. The result with Pseudomonas aeruginosa was inactive. Besides, in the series on Erythrocyte, the MHC amounted to 0.25 µM. Further, the result with Escherichia coli [9] and in the series on Escherichia coli [14] was Active. Also, the MIC with Acinetobacter baumannii [10] and in the series with Acinetobacter baumannii [12] was 2 µM (≈ 5.69 µg/mL) in each case. The inhibition result in the series on Escherichia coli [11] is “Active”. For the same compound, the Ratio in the series with Escherichia coli [13] is 4.
